For 21 compounds, IC50 results are on record in patent US11827627B2, “N-(hydroxyalkyl (hetero)aryl) tetrahydrofuran carboxamides as modulators of sodium channels” (VERTEX PHARMACEUTICALS INCORPORATED, priority 2021, dated 2023).

The target of the assay is human NaV 1.8 (Homo sapiens, UniProt Q9Y5Y9). Put plainly: E-VIPR assay detecting and measuring NaV inhibition properties. In kind it is cell-based. Conditions: HEK cells expressing a truncated form of human NaV 1.8; electrical stimulation, membrane potential FRET dyes. The text has this: E-VIPR Assay Detecting and Measuring NaV Inhibition Properties
Chain of human NaV 1.8 (Q9Y5Y9 126-1722 limits assumed): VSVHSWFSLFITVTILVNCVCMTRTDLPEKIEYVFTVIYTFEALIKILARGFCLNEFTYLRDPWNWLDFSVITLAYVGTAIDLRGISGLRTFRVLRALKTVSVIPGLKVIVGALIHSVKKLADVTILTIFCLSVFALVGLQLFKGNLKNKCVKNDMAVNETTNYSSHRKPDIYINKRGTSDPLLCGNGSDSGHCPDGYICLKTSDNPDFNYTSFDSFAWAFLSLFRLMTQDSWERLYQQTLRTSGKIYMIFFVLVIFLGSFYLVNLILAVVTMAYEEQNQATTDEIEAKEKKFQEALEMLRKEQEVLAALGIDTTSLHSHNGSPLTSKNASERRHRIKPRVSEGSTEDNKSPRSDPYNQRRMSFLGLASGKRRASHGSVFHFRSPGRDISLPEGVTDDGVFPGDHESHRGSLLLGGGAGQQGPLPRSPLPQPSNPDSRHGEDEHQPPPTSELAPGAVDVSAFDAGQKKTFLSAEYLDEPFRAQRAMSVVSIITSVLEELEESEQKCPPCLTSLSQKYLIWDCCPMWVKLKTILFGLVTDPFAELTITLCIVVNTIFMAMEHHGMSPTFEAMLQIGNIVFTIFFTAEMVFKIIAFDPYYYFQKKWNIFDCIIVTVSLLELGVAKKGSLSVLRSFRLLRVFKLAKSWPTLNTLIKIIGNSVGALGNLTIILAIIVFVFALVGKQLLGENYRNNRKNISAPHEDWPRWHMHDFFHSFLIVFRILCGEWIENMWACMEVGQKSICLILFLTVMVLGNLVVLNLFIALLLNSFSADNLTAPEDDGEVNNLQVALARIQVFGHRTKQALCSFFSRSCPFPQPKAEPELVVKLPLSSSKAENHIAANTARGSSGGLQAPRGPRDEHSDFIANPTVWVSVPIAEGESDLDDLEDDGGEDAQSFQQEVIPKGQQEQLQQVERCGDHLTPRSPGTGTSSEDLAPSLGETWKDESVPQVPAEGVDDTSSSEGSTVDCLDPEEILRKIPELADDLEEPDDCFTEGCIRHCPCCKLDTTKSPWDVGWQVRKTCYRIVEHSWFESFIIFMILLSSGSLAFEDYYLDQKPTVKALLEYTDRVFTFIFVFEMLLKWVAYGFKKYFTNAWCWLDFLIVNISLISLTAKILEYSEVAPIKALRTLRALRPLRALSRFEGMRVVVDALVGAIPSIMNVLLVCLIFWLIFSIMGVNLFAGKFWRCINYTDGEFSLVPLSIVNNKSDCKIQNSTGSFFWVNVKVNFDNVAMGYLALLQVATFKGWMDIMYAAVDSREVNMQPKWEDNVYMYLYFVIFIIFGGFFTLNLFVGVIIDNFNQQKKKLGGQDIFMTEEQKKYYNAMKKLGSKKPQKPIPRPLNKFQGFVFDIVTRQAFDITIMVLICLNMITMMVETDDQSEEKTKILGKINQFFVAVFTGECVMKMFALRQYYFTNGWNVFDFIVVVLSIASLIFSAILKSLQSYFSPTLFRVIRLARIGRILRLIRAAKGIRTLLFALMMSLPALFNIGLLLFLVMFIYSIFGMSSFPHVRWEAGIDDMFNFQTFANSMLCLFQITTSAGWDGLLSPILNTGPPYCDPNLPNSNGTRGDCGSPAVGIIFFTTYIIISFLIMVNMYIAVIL
Sodium ion channels are voltage-dependent proteins that can be activated by inducing membrane voltage changes by applying electric fields. The electrical stimulation instrument and methods of use, referred to as E-VIPR, are described in International Publication No. WO 2002/008748 A3 and C.-J. Huang et al. Characterization of voltage-gated sodium channel blockers by electrical stimulation and fluorescence detection of membrane potential, 24 Nature Biotech. 439-46 (2006), both of which are incorporated by reference in their entirety. The instrument comprises a microtiter plate handler, an optical system for exciting the coumarin dye while simultaneously recording the coumarin and oxonol emissions, a waveform generator, a current- or voltage-controlled amplifier, and parallel electrode pairs that are inserted into assay plate wells. Under integrated computer control, this instrument passes user-programmed electrical stimulus protocols to cells within the wells of the microtiter plate.
16-20 hours prior to running the assay on E-VIPR, HEK cells expressing a truncated form of human NaV 1.8 with full channel activity were seeded into microtiter 384-well plates, pre-coated with matrigel, at a density of 25,000 cells per well. 2.5-5% KIR2.1 Bacmam virus was added to the final cell suspension before seeding into cell plates. HEK cells were grown in Dulbecco's Modified Eagle's Medium (DMEM) supplemented with 10% FBS (Fetal Bovine Serum, qualified; Sigma #F4135), 1% NEAA (Non-Essential Amino Acids, Gibco #11140), 1% HEPES (Gibco #15630), 1% Pen-Strep (Penicillin-Streptomycin; Gibco #15140) and 5 μg/ml Blasticidin (Gibco #R210-01). Cells were expanded in vented cap cell culture flasks, with 90-95% humidity and 5% CO2.
Reagents and Stock Solutions:
100 mg/mL Pluronic F-127 (Sigma #P2443), in dry DMSO
Compound Plates: Corning 384-well Polypropylene Round Bottom #3656
Cell Plates: 384-well tissue culture treated plates (Greiner #781091-2B)
2.5-5% KIR 2.1 Bacmam virus (produced in-house), prepared as described in Section 3.3 of J. A. Fornwald et al., Gene Expression in Mammalian Cells Using BacMam, a Modified Baculovirus System, 1350 Methods in Molecular Biology 95-116 (2016), the entire contents of which are incorporated by reference. The concentration used can be dependent on viral titer of each batch.
5 mM DiSBAC6(3), a voltage sensitive oxonol acceptor (CAS number 169211-44-3; 5-[3-(1,3-dihexylhexahydro-4,6-dioxo-2-thioxo-5-pyrimidinyl)-2-propen-1-ylidene]-1,3-dihexyldihydro-2-thioxo-4,6(1H,5H)-pyrimidinedione), in dry DMSO. The preparation of DiSBAC6(3) is analogous to that of DiSBAC4(3) as described in Voltage Sensing by Fluorescence Resonance Energy Transfer in Single Cells, Gonzalez, J. E. and Tsien, R. Y. (1995) Biophys. J. 69, 1272-1280.
5 mM CC2-DMPE, a commercially available membrane-bound coumarin phospholipid FRET donor (ThermoFisher Scientific catalog number K1017, CAS number 393782-57-5; tetradecanoic acid, 1,1′-[(1R)-1-[8-(6-chloro-7-hydroxy-2-oxo-2H-1-benzopyran-3-yl)-3-hydroxy-3-oxido-8-oxo-2,4-dioxa-7-aza-3-phosphaoct-1-yl]-1,2-ethanediyl]ester) was prepared in dry DMSO. See also, Improved indicators of cell membrane potential that use fluorescence resonance energy transfer, Gonzalez, J. E. and Tsien, R. Y. (1997) Chem. Biol. 4, 269-277.
Voltage Assay Background Suppression Compound (VABSC-1) is prepared in H2O (89-363 mM, range used to maintain solubility)
Human Serum (HS, Millipore #S1P1-01KL, or Sigma SLBR5469V and SLBR5470V as a 50%/50% mixture, for 25% assay final concentration)
Bath 1 Buffer: • Sodium Chloride 160 mM (9.35 g/L), Potassium Chloride, 4.5 mM (0.335 g/L), Glucose 10 mM (1.8 g/L), Magnesium Chloride (Anhydrous) 1 mM (0.095 g/L), Calcium Chloride 2 mM (0.222 g/L), HEPES 10 mM (2.38 g/L) in water. […]

pIC50: −log10 of the molar value. Where only a bound is given, the exact number is not on record here.

Usually pIC50 stands for the IC50 on a negative log10 scale, so that one unit is a factor of ten. Low readings indicate a high IC50, high ones a low IC50. On to `COc1c(C2C(C(=O)Nc3cnc(CO)nc3)OC(C)(C(F)(F)F)C2C)ccc(F)c1C(F)F` (single isomer, unassigned) [Compound 54], for which the pIC50 is > 8.00.

Regarding `COc1c(C2C(C(=O)Nc3cnc(CO)nc3)OC(C)(C(F)(F)F)C2C)ccc(F)c1C(F)F` (single isomer, unassigned) [Compound 55], the negative-log IC50 (pIC50) was 6.00 to 7.00.

As to `COc1c([C@@H]2[C@@H](C(=O)Nc3ccc(C(C)O)nc3)O[C@](C)(C(F)(F)F)[C@@H]2C)ccc(F)c1C(F)F` (single isomer, unassigned) [Compound 57], the pIC50 was ≤ 6.00.

As for `C[C@@]1(C(F)(F)F)C[C@H](c2ccc(OC(F)(F)F)cc2Cl)[C@@H](C(=O)Nc2ccc([C@@H](O)CO)nc2)O1` (single isomer, unassigned) [Compound 61, rel-(2S,3R,5S)-3-(2-chloro-4-(trifluoromethoxy)phenyl)-N-(6-((R*)-1,2-dihydroxyethyl)pyridin-3-yl)-5-methyl-5-(trifluoromethyl)tetrahydrofuran-2-carboxamide], the pIC50 was ≤ 6.00.

`C[C@]1(C(F)(F)F)C[C@@H](c2ccc(OC(F)(F)F)cc2Cl)[C@H](C(=O)Nc2ccc([C@@H](O)CO)nc2)O1` (single isomer, unassigned) [Compound 62, rel-(2R,3S,5R)-3-(2-chloro-4-(trifluoromethoxy)phenyl)-N-(6-((R*)-1,2-dihydroxyethyl)pyridin-3-yl)-5-methyl-5-(trifluoromethyl)tetrahydrofuran-2-carboxamide] showed a pIC50 of 6.00 to 7.00.

For the compound `C[C@@]1(C(F)(F)F)C[C@@H](c2ccc(OC(F)(F)F)cc2Cl)[C@H](C(=O)Nc2ccc([C@@H](O)CO)nc2)O1` (single isomer, unassigned) [Compound 63, rel-(2R,3S,5S)-3-(2-chloro-4-(trifluoromethoxy)phenyl)-N-(6-((R*)-1,2-dihydroxyethyl)pyridin-3-yl)-5-methyl-5-(trifluoromethyl)tetrahydrofuran-2-carboxamide], the negative logarithm of the IC50 (pIC50) was ≤ 6.00.

As to `C[C@]1(C(F)(F)F)C[C@H](c2ccc(OC(F)(F)F)cc2Cl)[C@@H](C(=O)Nc2ccc([C@@H](O)CO)nc2)O1` (single isomer, unassigned) [Compound 64, rel-(2S,3R,5R)-3-(2-chloro-4-(trifluoromethoxy)phenyl)-N-(6-((R*)-1,2-dihydroxyethyl)pyridin-3-yl)-5-methyl-5-(trifluoromethyl)tetrahydrofuran-2-carboxamide], the pIC50 was ≤ 6.00.

With `Cc1c([C@@H]2[C@@H](C(=O)Nc3ccc([C@@H](O)CO)nc3)O[C@@](C)(C(F)(F)F)[C@H]2C)ccc(F)c1F` (single isomer, unassigned) [Compound 65, rel-(2S,3R,4S,5R)-3-(3,4-difluoro-2-methylphenyl)-N-(6-((R*)-1,2-dihydroxyethyl)pyridin-3-yl)-4,5-dimethyl-5-(trifluoromethyl)tetrahydrofuran-2-carboxamide], the pIC50 is ≤ 6.00.

In the case of `Cc1c([C@H]2[C@H](C(=O)Nc3ccc([C@@H](O)CO)nc3)O[C@@](C)(C(F)(F)F)[C@H]2C)ccc(F)c1F` (single isomer, unassigned) [Compound 66, rel-(2R,3S,4S,5R)-3-(3,4-difluoro-2-methylphenyl)-N-(6-((R*)-1,2-dihydroxyethyl)pyridin-3-yl)-4,5-dimethyl-5-(trifluoromethyl)tetrahydrofuran-2-carboxamide], the pIC50 was 7.00 to 8.00.

`Cc1c([C@@H]2[C@@H](C)[C@@](C)(C(F)(F)F)O[C@H]2C(=O)Nc2ccc([C@@H](O)CO)nc2)ccc(F)c1F` (single isomer, unassigned) [Compound 67, rel-(2R,3S,4R,5S)-3-(3,4-difluoro-2-methylphenyl)-N-(6-((R*)-1,2-dihydroxyethyl)pyridin-3-yl)-4,5-dimethyl-5-(trifluoromethyl)tetrahydrofuran-2-carboxamide]: the negative-log IC50 (pIC50) was ≤ 6.00.

Turning to `Cc1c([C@@H]2[C@@H](C(=O)Nc3ccc([C@@H](O)CO)nc3)O[C@](C)(C(F)(F)F)[C@@H]2C)ccc(F)c1F` (single isomer, unassigned) [Compound 68, rel-(2S,3R,4R,5S)-3-(3,4-difluoro-2-methylphenyl)-N-(6-((R*)-1,2-dihydroxyethyl)pyridin-3-yl)-4,5-dimethyl-5-(trifluoromethyl)tetrahydrofuran-2-carboxamide], the pIC50 was ≤ 6.00.

Turning to `COc1c([C@@H]2[C@@H](C(=O)Nc3ccc([C@@H](O)CO)nc3)O[C@](C)(C(F)(F)F)[C@@H]2C)cccc1C(F)(F)F` (single isomer, unassigned) [Compound 69, rel-(2S,3R,4R,5S)-N-(6-((R*)-1,2-dihydroxyethyl)pyridin-3-yl)-3-(2-methoxy-3-(trifluoromethyl)phenyl)-4,5-dimethyl-5-(trifluoromethyl)tetrahydrofuran-2-carboxamide], the pIC50 is ≤ 6.00.

As to `COc1c([C@H]2[C@H](C(=O)Nc3ccc([C@@H](O)CO)nc3)O[C@@](C)(C(F)(F)F)[C@H]2C)cccc1C(F)(F)F` (single isomer, unassigned) [Compound 70, rel-(2R,3S,4S,5R)-N-(6-((R*)-1,2-dihydroxyethyl)pyridin-3-yl)-3-(2-methoxy-3-(trifluoromethyl)phenyl)-4,5-dimethyl-5-(trifluoromethyl)tetrahydrofuran-2-carboxamide], the negative logarithm of the IC50 (pIC50) was > 8.00.

`COc1c([C@H]2[C@H](C(=O)Nc3cnc(C(O)CO)nc3)O[C@@](C)(C(F)(F)F)[C@H]2C)cccc1C(F)(F)F` (single isomer, unassigned) [Compound 71] gave a pIC50 of 6.00 to 7.00.

Regarding `COc1c([C@@H]2[C@@H](C(=O)Nc3cnc(C(O)CO)nc3)O[C@](C)(C(F)(F)F)[C@@H]2C)cccc1C(F)(F)F` (single isomer, unassigned) [Compound 72], the pIC50 is ≤ 6.00.

Turning to `COc1c([C@H]2[C@H](C(=O)Nc3cnc(C(O)CO)nc3)O[C@@](C)(C(F)(F)F)[C@H]2C)cccc1C(F)(F)F` (single isomer, unassigned) [Compound 73], the negative-log IC50 (pIC50) is 7.00 to 8.00.

As for `CCOc1ccc([C@H]2[C@H](C(=O)Nc3ccc([C@@H](O)CO)nc3)O[C@@](C)(C(F)(F)F)[C@H]2C)c2c1OC(F)(F)O2` (single isomer, unassigned) [Compound 75, rel-(2R,3S,4S,5R)-N-(6-((R*)-1,2-dihydroxyethyl)pyridin-3-yl)-3-(7-ethoxy-2,2-difluorobenzo[d][1,3]dioxol-4-yl)-4,5-dimethyl-5-(trifluoromethyl)tetrahydrofuran-2-carboxamide], the negative-log IC50 (pIC50) is ≤ 6.00.

For the compound `Cc1c([C@@H]2[C@@H](C)[C@@](C)(C(F)(F)F)O[C@H]2C(=O)Nc2ccc(CO)nc2)ccc(F)c1F` (single isomer, unassigned) [Compound 77], the negative logarithm of the IC50 (pIC50) is ≤ 6.00.

For the compound `Cc1c([C@@H]2[C@@H](C(=O)Nc3ccc(CO)nc3)O[C@](C)(C(F)(F)F)[C@@H]2C)ccc(F)c1F` (single isomer, unassigned) [Compound 78], the negative-log IC50 (pIC50) was ≤ 6.00.

For `Cc1c([C@@H]2[C@@H](C(=O)Nc3ccc(CO)nc3)O[C@@](C)(C(F)(F)F)[C@H]2C)ccc(F)c1F` (single isomer, unassigned) [Compound 79], the negative logarithm of the IC50 (pIC50) is ≤ 6.00.

`Cc1c([C@H]2[C@H](C(=O)Nc3ccc(CO)nc3)O[C@@](C)(C(F)(F)F)[C@H]2C)ccc(F)c1F` (single isomer, unassigned) [Compound 80]: the pIC50 was > 8.00.
